This is an account of results in patent US20070225335A1, “Pyrazole Derivatives for Treating Condit Ions Mediated by Activation of the Adeno Sine A2B or A3 Receptor” (priority 2004, published 2007).

Usually Kb stands for the affinity of an antagonist, worked out from how it opposes an agonist.

This experiment addresses T1, human adenosine A2b receptor (Homo sapiens, UniProt P29275).
T1 construct: expressed in transfected cells; host or cells: CHO (Chinese Hamster Ovary) cells co-transfected with the reporter plasmid pCRE-LUCI
T1 sequence (P29275 1-332): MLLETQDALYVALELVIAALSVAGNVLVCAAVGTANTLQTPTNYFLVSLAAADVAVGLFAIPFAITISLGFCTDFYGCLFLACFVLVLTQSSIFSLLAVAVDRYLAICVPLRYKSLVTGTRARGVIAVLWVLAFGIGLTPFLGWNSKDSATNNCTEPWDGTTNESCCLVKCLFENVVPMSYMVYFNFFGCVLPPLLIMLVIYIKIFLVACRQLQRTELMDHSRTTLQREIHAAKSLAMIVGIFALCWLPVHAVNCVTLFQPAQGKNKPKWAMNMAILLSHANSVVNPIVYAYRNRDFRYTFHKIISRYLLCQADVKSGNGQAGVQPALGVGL
Kind of experiment: Adenosine A2b receptor reporter gene assay (luciferase, CHO-A2b cells, NECA agonist). The class given is cell-based. Conditions: CHO cells with pCRE-LUCI and human A2b receptor; shift of NECA concentration-response curve; antagonist at 100 nM or 1 μM; KB=[antagonist]/(concentration ratio−1). On the procedure:
Adenosine A2b Receptor Reporter Gene Assay a) Culturing of Chinese Hamster Ovary (CHO) A2b Cell Line
CHO cells transfected with a Luciferase-expressing reporter plasmid (pCRE-LUCI) and with a plasmid carrying the human adenosine A2b receptor structural gene (pA2bRCV) are routinely cultured in Dulbecco's Modified Eagle Medium (DMEM)—supplemented with 10% v/v fetal calf serum (FCS), 2 mM L-glutamine, 0.4 mg/ml L-proline, 1 nM sodium selenite, 0.5 mg/ml Hygromycin B and 1 mg/ml Geneticin—at 37° C., 5% CO2 and 100% humidity. The cells are left to grow to confluence for 4-5 days. The cells obtained are passaged using trypsin/EDTA and split at a ratio of 1 in 5. […]
b) Preparation of cells for assay […]
5′-N-ethylcarboxamidoadenosine (NECA), an adenosine A2b agonist, is prepared as a […] solution in DMSO and then diluted to 100 μM with Assay Buffer. […] 100 μl of Steady-Glo, a Luciferase assay substrate from Promega, is added to all wells to lyse the cells and generate luminescence in proportion to the amount of Lucifrease produced. The plates are left for a minimum of 5 minutes before being read on the luminescence program of a Topcount NXT microplate scintillation counter (ex Packard). […]
On the technique in general: Reporter assays use an easily measured gene product as a stand-in for the process of interest.

Regarding `N#Cc1ccc(NC(=O)c2cnn(-c3cccc(F)c3)c2-c2ccncc2)cc1` [Example 4, 1-(3-Fluoro-phenyl)-5-pyridin-4-yl-1H-pyrazole4-carboxylic acid (4-cyano-phenyl)-amide], the Kb was determined as 139 nM.
To `O=C(Nc1cccnc1)c1cc(-c2ccncc2)n(-c2cccc(F)c2)n1` [Example 33, 1-(3-Fluoro-phenyl)-5-pyridin-4-yl-1H-pyrazole-3-carboxylic acid pyridin-3-ylamide] belongs 188 nM.
